Measured values as given in article PMC3997506, “Novel PPAR Pan Agonist, ZBH Ameliorates Hyperlipidemia and Insulin Resistance in High Fat Diet Induced Hyperlipidemic Hamster” (PLoS ONE, 2014).
pEC50, pKd: −log10 of the molar value.

Key:
hPPARα-LBD = molecular target: T1, hPPARα-LBD (Homo sapiens, UniProt Q07869); experiment: Ligand binding assay with SPR (Biacore T100); details: steady state affinity fitting
T1 construct: purchased Cayman chemical
T1 sequence (Q07869 239-466 limits assumed): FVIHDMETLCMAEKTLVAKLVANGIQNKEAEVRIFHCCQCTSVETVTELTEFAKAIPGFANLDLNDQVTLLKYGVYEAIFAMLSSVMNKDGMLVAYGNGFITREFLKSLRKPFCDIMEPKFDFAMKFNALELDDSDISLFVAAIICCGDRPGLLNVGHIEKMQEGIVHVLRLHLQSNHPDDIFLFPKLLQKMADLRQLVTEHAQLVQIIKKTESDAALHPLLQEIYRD
Method: (§1) The binding affinities of ZBH for PPARα-LBD, PPARδ-LBD or PPARγ-LBD (Cayman chemical, MI, USA) were assayed using SPR-based Biacore T100 (GE Healthcare/Biacore, Uppsala, Sweden) as described previously, [20].

hPPARγ-LBD = molecular target: T2, hPPARγ-LBD (Homo sapiens, UniProt P37231); experiment: Ligand binding assay with SPR (Biacore T100); details: steady state affinity fitting
T2 construct: purchased Cayman chemical
T2 sequence (P37231 238-503 limits assumed): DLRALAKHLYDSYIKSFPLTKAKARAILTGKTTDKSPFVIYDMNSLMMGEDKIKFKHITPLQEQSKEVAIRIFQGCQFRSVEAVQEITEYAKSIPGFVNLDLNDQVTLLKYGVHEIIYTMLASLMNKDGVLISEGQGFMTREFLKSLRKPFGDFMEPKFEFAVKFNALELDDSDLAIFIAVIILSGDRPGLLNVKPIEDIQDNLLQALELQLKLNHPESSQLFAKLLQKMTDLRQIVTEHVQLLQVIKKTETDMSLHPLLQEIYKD
Method: as §1

hPPARδ-LBD = molecular target: T3, hPPARδ-LBD (Homo sapiens, UniProt Q03181); experiment: Ligand binding assay with SPR (Biacore T100); details: steady state affinity fitting
T3 construct: purchased Cayman chemical
T3 sequence (Q03181 211-439 limits assumed): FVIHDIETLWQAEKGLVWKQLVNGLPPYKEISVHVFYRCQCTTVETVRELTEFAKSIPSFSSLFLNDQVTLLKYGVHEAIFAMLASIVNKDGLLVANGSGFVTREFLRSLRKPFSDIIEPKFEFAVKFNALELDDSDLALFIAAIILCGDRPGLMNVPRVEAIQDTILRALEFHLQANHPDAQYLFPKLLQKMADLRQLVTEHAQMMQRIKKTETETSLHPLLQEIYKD
Method: as §1

hPPARα = molecular target: T4, hPPARα (Homo sapiens, UniProt Q07869); experiment: In vitro transactivation assay, GAL4-hPPAR luciferase reporter in HEK-293 cells; assay type: cell-based
T4 sequence (Q07869 200-468 limits assumed): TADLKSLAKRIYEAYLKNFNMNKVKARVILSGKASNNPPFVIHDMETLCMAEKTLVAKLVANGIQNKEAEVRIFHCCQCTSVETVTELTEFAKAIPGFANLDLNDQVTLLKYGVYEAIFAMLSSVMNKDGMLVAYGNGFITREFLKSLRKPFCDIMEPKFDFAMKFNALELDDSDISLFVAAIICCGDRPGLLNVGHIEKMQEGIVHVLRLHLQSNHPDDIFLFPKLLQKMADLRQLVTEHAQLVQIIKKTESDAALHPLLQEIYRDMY
Method: Transactivation of PPARs was analyzed in a cell-based luciferase reporter assay using HEK-293 cells transiently transfected to express hPPAR-GAL4 chimeric receptors with plasmids GAL4-hPPAR α, γ, or δ, and pUAS (5x)-tk-luc receptor vector as previously described. 24 h after transfection, cells were treated with the indicated compounds, followed by the measurement of luciferase activity 24 h later. Mean values represent those obtained from at least three independent experiments performed in triplicate and normalized by the Renilla luciferase reading.
HEK-293 cells transiently transfected to express hPPAR-GAL4 chimeric receptors with plasmids GAL4-hPPAR α, γ, or δ, and pUAS (5x)-tk-luc receptor vector. 24 h after transfection, cells were treated with the indicated compounds at various concentrations followed by the measurement of luciferase activity 24 h after treatment. The results shown are the mean values obtained from at least three independent experiments performed in triplicate normalized by the Renilla luciferase reading.

hyperlipidemic hamsters = experiment: High fat diet induced hyperlipidemic hamster, 5-week oral treatment; assay type: in vivo, golden Syrian hamsters (Mesocricetus auratus)
Excerpt: Male golden Syrian hamsters (Mesocricetus auratus) weighing 90–110 g were purchased from Vital River Laboratory Animal Technology Co. Ltd. (Beijing, China). Animals were maintained on a 12-h day/night schedule with ad libitum access to nutrition and water. […] Blood samples were taken after overnight fasting from the suborbital sinus under light sevoflurane anesthesia on the fifth and tenth day for measurement of serum total cholesterol (TC) and triglyceride (TG). […] The dose selection of ZBH was based on previous pilot study. Hamsters with standard rodent diet were used as normal control. Compounds were dissolved in DMSO and suspended in 0.5% methylcellulose and administered by gavage once a day for 5 weeks. Individual body weight and cage food consumption were measured every two days. Dynamic serum lipid monitoring was performed weekly and blood samples were taken from the retro-orbital venous plexus under light ether anesthesia using a glass capillary tube after overnight fasting. Then the animal were sacrificed by cervical decapitation under anesthesia, and the liver, heart, epididymal white adipose tissue (eWAT) and gastrocnemius muscle were excised, rapidly frozen in liquid nitrogen and maintained at −80°C until analysis. Serum TC, TG and free fatty acids (FFA) were measured by using commercial kit (Nanjing Jiancheng, Bioengineering Institute, Nanjing, China) as previously described. Serum glucose, low-density lipoprotein cholesterol (LDLc) and high-density lipoprotein cholesterol (HDLc) were measured with the Hitachi 917 automated biochemistry analyzer (Roche diagnostics, Indianapolis, USA). Serum insulin was quantified by ELISA using a hamster insulin assay kit (Crystal Chem Inc., IL, and USA). The insulin sensitivity index (ISI) was calculated by the values of fasting blood glucose (FBG) and fasting blood insulin (FBI). ISI = 1/(FBG×FBI) 1000 [21]. […] After evaporation of the chloroform under nitrogen, lipid samples were resuspended in isopropyl alcohol, and TG and TC content was determined by enzymatic assay. […] Frozen liver samples were used to perform hepatic lipid specific staining with Oil Red O staining.

Kunming mice = details: stated in Introduction, no method given; cited from earlier work
[1] = stated in Introduction, no method given; cited from earlier work

Work on `COc1ccc(/C=C/c2cc(OC)cc(OCCCC(C)(C)C(=O)O)c2)cc1` [ZBH, (E)-5-(3-methoxy-5-(4-methoxystyryl)phenoxy) -2,2-dimethylpentanoic acid] yielded a pKd (hPPARα-LBD) of 6.08, a pKd (hPPARγ-LBD) of 5.41 and a pKd (hPPARδ-LBD) of 5.38. For the same molecule, the “PPARα transactivation selectivity over other PPAR subtypes (EC50 fold)” value (hPPARα; Discussion) was 11 fold, the “maximal activation of PPARα” value (hPPARα; HEK-293) was “approximately 11 fold” and the pEC50 (hPPARα; HEK-293, 24 h treatment) was 5.76. The “PPARα activation potency (EC50) relative to bezafibrate” value (hPPARα; ZBH vs bezafibrate) was 21 fold, the “PPARα activation exceeds PPARγ activation” value (hPPARα; selectivity α over γ) was 14 fold and the “PPARα activation exceeds PPARδ activation” value (hPPARα; selectivity α over δ) was 11 fold. For the same molecule, the Kidney weight (hyperlipidemic hamsters; 6.25 mg/kg, 5 weeks) was 1.01 ± 0.08 g, the Liver weight (hyperlipidemic hamsters; 6.25 mg/kg, 5 weeks) was 7.78 ± 0.23 g and the “Retroperitoneal WAT” value (hyperlipidemic hamsters; 6.25 mg/kg, 5 weeks) was 13.93 ± 0.82 g. For the same molecule, the “Subcutaneous WAT” value (hyperlipidemic hamsters; 6.25 mg/kg, 5 weeks) was 7.28 ± 0.32 g, the iBAT (hyperlipidemic hamsters; 6.25 mg/kg, 5 weeks) was 0.23 ± 0.01 g and the Kidney weight (hyperlipidemic hamsters; 12.5 mg/kg, 5 weeks) was 0.95 ± 0.09 g. For the same molecule, the Liver weight (hyperlipidemic hamsters; 12.5 mg/kg, 5 weeks) was 7.77 ± 0.31 g, the “Retroperitoneal WAT” value (hyperlipidemic hamsters; 12.5 mg/kg, 5 weeks) was 12.63 ± 0.66 g and the “Subcutaneous WAT” value (hyperlipidemic hamsters; 12.5 mg/kg, 5 weeks) was 6.53 ± 0.42 g. For the same molecule, the iBAT (hyperlipidemic hamsters; 12.5 mg/kg, 5 weeks) was 0.21 ± 0.01 g, the “maximum decrease in serum insulin levels” value (hyperlipidemic hamsters; 25 mg kg^−1, 5 weeks) was 84% and the “serum FFA” value (hyperlipidemic hamsters; 25 mg kg^−1, after one-week treatment until the end) was “lowered remarkably”. For the same molecule, the Kidney weight (hyperlipidemic hamsters; 25 mg/kg, 5 weeks) was 0.94 ± 0.05 g, the Liver weight (hyperlipidemic hamsters; 25 mg/kg, 5 weeks) was 8.52 ± 0.45 g and the “Retroperitoneal WAT” value (hyperlipidemic hamsters; 25 mg/kg, 5 weeks) was 10.43 ± 0.39 g. For the same molecule, the “Subcutaneous WAT” value (hyperlipidemic hamsters; 25 mg/kg, 5 weeks) was 5.19 ± 0.12 g, the iBAT (hyperlipidemic hamsters; 25 mg/kg, 5 weeks) was 0.19 ± 0.01 g and the “hepatic TG contents / hepatic steatosis” value (hyperlipidemic hamsters; 5 weeks, Figure 7) was “greatly lowered”. The “serum GOT, GPT, CK and creatinine levels” value (hyperlipidemic hamsters; 5 weeks, Figure S1) was “not altered”, the “increase of the weight of the liver” value (hyperlipidemic hamsters; 6.25-25 mg/kg, after 5 weeks, vs MC) was 7%∼17 and the “serum TG, TC and LDLc” value (hyperlipidemic hamsters; 12.5 or 25 mg kg^−1) was “time and dose-dependent decrease”. The “impact on food intake” value (hyperlipidemic hamsters; Figure 5B) was “negligible”, the body weight gain (hyperlipidemic hamsters; ZBH 25 mg/kg, bezafibrate 50 mg/kg, Figure 5A) was “gained less weight” and the “increase in relative liver weight” value (hyperlipidemic hamsters; highest dose, relative to MC) was 17%. For the same molecule, the “oral LD50” value (Kunming mice) was greater than 1200 mg/kg and the oral bioavailability [1] was 67%.
